According to US20020147136A1, “Compounds for targeting endothelial cells, compositions containing the same and methods for their use” (priority 2000, published 2002):
Residues, ends and D or L forms follow the SMILES beside them.

Experiments:
[1] = tested on: Rabbit aortic endothelial cells (RAEC); experiment: Microbubble binding to RAEC in static culture; format: cell-based; conditions: free TKPPR 100 μM; 5% bubbles (Composition I of Example 5)
Protocol: Rabbit aortic endothelial cells (RAEC) from Biowhittaker (Cat No. AC-7018, lot 9CC086 from a custom isolation) were obtained frozen on dry ice and stored in liquid nitrogen until thawing. RAEC were cultured and used in bubble binding assays exactly as HAEC (described above), except that EGM2-MV medium (Biowhittaker Cat No. CC-3202) was substituted for EGM-MV.

[2] = tested on: HAEC; experiment: Inhibition of TKPPR-bubble binding to HAEC in static culture by competing agents; format: cell-based, human; conditions: for inhibition of bubble binding: 10 μM free TKPPR; for Bubbles Bound (average of duplicate): 1% BRU-114 bubbles
Protocol: Vials of the compositions of example 5 and of example 6 may be reconstituted with 5 mL of sterile saline, injected using a 20-guage 1.5 inch needle. Bubbles may be then formed within the vials by shaking by hand vigorously for 30 seconds. 1 to 5 mL of the bubble formulation may be removed from each vial and diluted with 3 volumes of D-PBS (without calcium or magnesium) within 1 hour of use.
Chamber slides containing confluent HAEC may be drained of culture medium, which was immediately replaced with one of the final bubble solutions prepared above. The wells may be slightly overfilled such that the liquid meniscus protrudes slightly above the plastic well-forming scaffold of the slide. Bubble solutions may be only added to alternate wells to minimize liquid cross-talk. The wells may be sealed with a piece of Parafilm and the slide incubated 20 minutes, inverted (according to Klibanov A. L., Advanced drug Delivery Reviews, 37, 1999, 139-157) to allow the bubbles to rise and make contact with the cells, after which the solutions may be poured off. Weakly associated bubbles may be removed by washing each well twice with 0.5 mL of D-PBS, swirling gently each time before pouring off. Additional D-PBS (0.5 mL) may be added to wells after the washes to keep the cells submerged until microscopic evaluation.
Composition I of Example 5 was repeated exactly as described except that 0.5 mg DPPE-GTKPPR was added (instead of 2.5 mg) yielding compositions with 1% DPPE-GTKPPR. Vials of this composition as well as that of composition I ofExample 5 (5% DPPE-GTKPPR) were reconstituted with 5 mL of sterile saline, injected using a 20-guage 1.5 inch needle. Bubbles were then formed within the vials by shaking by hand vigorously for 30 seconds. 1 to 5 mL of the bubble formulation was removed from each vial and diluted with 3 volumes of D-PBS (without calcium or magnesium) within 1 hour of use.
Chamber slides containing confluent HAEC were drained of culture medium, which was immediately replaced with one of the final bubble solutions prepared above. The wells were slightly overfilled such that the liquid meniscus protruded slightly above the plastic well-forming scaffold of the slide. Bubble solutions were only added to alternate wells to minimize liquid cross-talk. The wells were sealed with a piece of Parafilm and the slide was incubated 20 minutes, inverted to allow the bubbles to rise and make contact with the cells, after which the solutions were poured off. Weakly associated bubbles were removed by washing each well twice with 0.5 mL of D-PBS, swirling gently each time pouring off. Additional D-PBS (0.5 mL) was added to wells after the washes to keep the cells submerged until microscopic evaluation.
Assays were performed as described for Example 7 using microbubble compositions containing 2% BRU-114 (Composition I of Example 5) as a % of total phospholipid in the composition.
Compositions were reconstituted and assays were performed as described in Example 7 using microbubble compositions containing 1% BRU-114 (Composition I of Example 5) as a % of total phospholipid in the composition.
Assays were performed as described for Example 7 using microbubble compositions containing 2% BRU-114 (as a % of total phospholipid in the composition).

[3] = biological target: NP-1/Fc; experiment: Inhibition of 125I-VEGF165 binding to NP-1/Fc; conditions: 250 pM 125I-VEGF165, 4° C., 2 hours
Protocol: The ability of various compositions comprising TKPPR monomers or multimers to inhibit ^125I-VEGF binding to NP-1 was evaluated using NP-1/Fc. Competitive binding assays with microtiter plates coated with NP-1/Fc (R&D sytems) were performed using ^125I-VEGF165 as radioligand (Amersham Pharmacia Biotech Cat. No. IM274, Specific Activity: 1000-2500 Ci/mmol). […] Plates (Nunc MaxiSorp white opaque Microtiter plate [C-bottom, 437796]) were coated by incubating the wells with 75 µl of a solution containing 3 μlg/mL NP-1/Fc in D-PBS/0.1% NaAzide overnight at 4° C. after covering with sealing tape (Dynex, VWR Cat. No. 62402-931). […] All points were derived from triplicate wells, and for each set of replicates in NP-1/Fc-coated wells, a companion set in the absence of the receptor was included. For competitive binding, a series of unlabelled competitor concentrations were prepared in a 250 pM solution of ^1251-VEGF165 in assay buffer Solutions were added to 1.2 ml polypropylene tubes conforming to the microtiter format (Costar Cat. No. 29442-602), and transferred from these tubes to microtiter wells, without further dilution, using a multichannel pipettor. After addition of the appropriate solutions, microtiter plates were incubated at 4° C. for 2 hours. […] The plates were blotted dry and 25 μl deionized water and 100 μl scintillation fluid (Optiphase SuperMix, Wallac) were added to each well. Plates were agitated using a Plate Shaker (Hyperion, Cat. No. 4030-100F) for 3-5 minutes and were then counted using a Microplate Scintillation Counter (Wallac Microbeta Trilux) A set of serially diluted 125I-VEGF165 standard wells ranging from 200 to 0.04 pM were included with each experiment to aid in quantification of the amount of radiolabel bound.

inhibition of bubble binding ([2]; 1% composition bubbles): 82.7% | inhibition of bubble binding ([2]; 5% composition bubbles): no inhibition | block of bubble association with HAEC ([2]; Example 7, 10 to 100 μM free TKPPR peptide): blocked | Bubbles Bound (average of duplicate) ([2]; competitor 5 microM): 790 | Bubbles Bound (average of duplicate) ([2]; competitor 10 microM): 528 | Bubbles Bound (average of duplicate) ([2]; competitor 25 microM): 106 | Bubbles Bound % of control binding ([2]; competitor 25 microM, 2% BRU-114 bubbles): 16% | Bubbles Bound (average of duplicate) ([2]; competitor 50 microM): 56 | Bubbles Bound (average of duplicate) ([2]; competitor 100 microM): 17 | Average % Inhibition of bubble binding ([2]; free TKPPR 5 μM, 1% composition bubbles): 45.7% | Average % Inhibition of bubble binding ([2]; free TKPPR 10 μM, 1% composition bubbles): 79.6% | Average % Inhibition of bubble binding ([2]; free TKPPR 25 μM, 1% composition bubbles): 82.0% | Average % Inhibition of bubble binding ([2]; free TKPPR 50 μM, 1% composition bubbles): 92.7% | Average % Inhibition of bubble binding ([2]; free TKPPR 100 μM, 1% composition bubbles): 93.7% | HAEC bubbles bound ([2]; free TKPPR 100 μM, 5% bubbles (Composition I of Example 5)): 58 | IC50 [3]: 43 µM
SMILES: CC(O)C(N)C(=O)NC(CCCCN)C(=O)N1CCCC1C(=O)N1CCCC1C(=O)NC(CCCNC(=N)N)C(=O)O [TKPPR, L-Arginine, L-threonyl-L-lysyl-L-prolyl-L-prolyl] (H-TKPPR-OH; configuration not given here)
RAEC bubbles bound [1]: 21
